Laboratory results as given in patent US20250236609A1, “VPS34 INHIBITORS AND METHODS OF USE THEREOF” (Deciphera Pharmaceuticals, LLC, priority 2023, published 2025).
pIC50: −log10 of the molar value.

Key:
VPS34 = VPS34 (Homo sapiens (Human), UniProt Q8NEB9); test: Biochemical Assay for VPS34 (ADP-Glo kinase activity assay); details: 25 nM VPS34, 1 mM ATP, 1-hour incubation at 37° C.; read-out: VPS34 (Inhibition of biochemical activity of VPS34, IC50)
Procedure: Activity of VPS34 kinase was determined using an ADP-Glo kinase activity assay (Promega Corp). Assays were conducted in 384-well plates (5 μL assay volume) using 25 nM VPS34 (ThermoFisher Scientific), […] PI:3PS Lipid Kinase Substrate (Promega Corp.), and 1 mM ATP in kinase buffer. Inhibition of VPS34 was measured by adding serial diluted test compound (final assay concentration of 0.1% DMSO) followed by a 1-hour incubation at 37° C. ADP-Glo reagent was then added ([…]) followed by a 40 min incubation at rt. Kinase detection reagent was then added ([…]) and followed by a 60 min incubation at rt. Luminescence was then detected. The RLU at each compound concentration of was converted to percent inhibition using controls (i.e., reaction with no test compound and reaction with a known inhibitor) and IC50 values were calculated by fitting a four-parameter sigmoidal curve to the data using GeneData Screener software.
VPS34 Protein Sequence (Full Length with GST Tag)

[1] = biological target: PI3K (p110α (E542K)/p85α) (Homo sapiens (Human), UniProt P42336, E542K); test: Lipid kinase selectivity panel (Reaction Biology); assay type: biochemical; details: 1 μM compound, single dose duplicates, 10 μM ATP; read-out: Percent inhibition relative to DMSO control, PI3K (p110α (E542K)/p85α)
Chain of PI3K (p110α (E542K)/p85α) (P42336 whole entry E542K): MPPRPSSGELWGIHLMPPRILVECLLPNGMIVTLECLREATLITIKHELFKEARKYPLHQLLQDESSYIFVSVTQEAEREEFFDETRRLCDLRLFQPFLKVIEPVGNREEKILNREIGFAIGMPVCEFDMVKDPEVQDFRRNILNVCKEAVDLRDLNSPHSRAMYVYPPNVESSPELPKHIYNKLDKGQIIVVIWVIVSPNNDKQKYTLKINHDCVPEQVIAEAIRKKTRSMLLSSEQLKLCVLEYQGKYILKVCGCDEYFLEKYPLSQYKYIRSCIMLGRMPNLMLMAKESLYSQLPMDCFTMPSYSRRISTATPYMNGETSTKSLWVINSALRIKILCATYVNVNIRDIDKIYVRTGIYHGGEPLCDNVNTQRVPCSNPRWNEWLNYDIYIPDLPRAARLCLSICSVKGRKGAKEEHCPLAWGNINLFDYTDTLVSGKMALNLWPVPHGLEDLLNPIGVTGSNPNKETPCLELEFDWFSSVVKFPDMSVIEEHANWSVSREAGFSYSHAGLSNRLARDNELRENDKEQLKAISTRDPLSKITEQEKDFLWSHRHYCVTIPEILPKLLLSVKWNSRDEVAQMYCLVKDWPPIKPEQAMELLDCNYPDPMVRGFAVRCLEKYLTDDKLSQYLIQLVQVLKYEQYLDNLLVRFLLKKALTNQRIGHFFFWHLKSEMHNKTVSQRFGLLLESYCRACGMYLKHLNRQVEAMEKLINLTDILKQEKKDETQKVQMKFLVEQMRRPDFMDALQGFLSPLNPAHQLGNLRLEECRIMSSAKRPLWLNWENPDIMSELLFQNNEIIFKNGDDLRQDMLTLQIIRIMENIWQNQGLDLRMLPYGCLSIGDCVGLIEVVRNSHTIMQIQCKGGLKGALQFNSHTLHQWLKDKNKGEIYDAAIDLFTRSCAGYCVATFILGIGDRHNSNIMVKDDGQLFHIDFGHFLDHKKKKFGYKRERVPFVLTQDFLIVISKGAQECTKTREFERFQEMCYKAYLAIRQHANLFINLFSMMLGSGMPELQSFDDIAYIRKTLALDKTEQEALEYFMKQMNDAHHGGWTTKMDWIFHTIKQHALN
Chain of PI3K (p110α (E542K)/p85α) (P27986 whole entry partner): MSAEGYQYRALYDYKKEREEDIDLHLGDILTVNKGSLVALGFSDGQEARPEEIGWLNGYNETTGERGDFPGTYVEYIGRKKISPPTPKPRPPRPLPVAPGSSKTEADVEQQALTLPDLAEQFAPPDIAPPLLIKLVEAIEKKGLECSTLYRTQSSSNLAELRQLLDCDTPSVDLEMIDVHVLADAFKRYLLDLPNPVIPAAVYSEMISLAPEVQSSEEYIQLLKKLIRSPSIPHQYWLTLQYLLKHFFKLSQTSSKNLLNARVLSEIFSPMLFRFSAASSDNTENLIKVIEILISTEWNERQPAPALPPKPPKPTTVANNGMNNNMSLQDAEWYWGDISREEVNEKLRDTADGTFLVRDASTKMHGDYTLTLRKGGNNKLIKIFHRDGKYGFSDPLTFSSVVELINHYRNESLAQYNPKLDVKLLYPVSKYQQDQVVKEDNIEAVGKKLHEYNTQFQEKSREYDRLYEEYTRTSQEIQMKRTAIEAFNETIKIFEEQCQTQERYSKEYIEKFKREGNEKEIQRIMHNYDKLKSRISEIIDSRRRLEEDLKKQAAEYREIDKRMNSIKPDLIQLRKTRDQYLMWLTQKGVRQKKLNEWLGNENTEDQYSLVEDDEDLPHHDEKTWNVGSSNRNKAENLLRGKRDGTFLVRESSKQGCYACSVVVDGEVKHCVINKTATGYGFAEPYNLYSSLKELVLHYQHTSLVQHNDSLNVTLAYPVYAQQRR
Procedure: (§1) The compounds of the present invention were tested in a standard lipid kinase selectivity panel: 16 other lipid kinases (Reaction Biology, Malvern, PA, USA), under conditions of non-disclosure, non-dissemination, and non-use. In brief, compounds (see Table 2) were tested at in single dose duplicates at 1 μM against lipid kinases, including PI3Kα, PI3Kβ, and PI3Kδ, and reactions were carried out at 10 μM ATP.

[2] = biological target: PI3K (p110α (E545K)/p85α) (Homo sapiens (Human), UniProt P42336, E545K); test: Lipid kinase selectivity panel (Reaction Biology); assay type: biochemical; details: 1 μM compound, single dose duplicates, 10 μM ATP; read-out: Percent inhibition relative to DMSO control, PI3K (p110α (E545K)/p85α)
Chain of PI3K (p110α (E545K)/p85α) (P42336 whole entry E545K): as the sequence (P42336 whole entry E542K) above, with K542E, E545K counted along it
Chain of PI3K (p110α (E545K)/p85α) (P27986 whole entry partner): as the sequence (P27986 whole entry partner) above
Procedure: as §1

[3] = biological target: PI3K (p110α (H1047R)/p85α) (Homo sapiens (Human), UniProt P42336, H1047R); test: Lipid kinase selectivity panel (Reaction Biology); assay type: biochemical; details: 1 μM compound, single dose duplicates, 10 μM ATP; read-out: Percent inhibition relative to DMSO control, PI3K (p110α (H1047R)/p85α)
Chain of PI3K (p110α (H1047R)/p85α) (P42336 whole entry H1047R): as the sequence (P42336 whole entry E542K) above, with K542E, H1047R counted along it
Chain of PI3K (p110α (H1047R)/p85α) (P27986 whole entry partner): as the sequence (P27986 whole entry partner) above
Procedure: as §1

PI3K (p110α/p65α) = PI3K (p110α/p65α) (Homo sapiens (Human), UniProt P42336); test: Lipid kinase selectivity panel (Reaction Biology); assay type: biochemical; details: 1 μM compound, single dose duplicates, 10 μM ATP; read-out: Percent inhibition relative to DMSO control, PI3K (p110α/p65α)
Chain of PI3K (p110α/p65α) (P42336 whole entry, species assumed): as the sequence (P42336 whole entry E542K) above, with K542E counted along it
Procedure: as §1

PI3KC2α = PI3KC2α (Homo sapiens (Human), UniProt O00443); test: Lipid kinase selectivity panel (Reaction Biology); assay type: biochemical; details: 1 μM compound, single dose duplicates, 10 μM ATP; read-out: Percent inhibition relative to DMSO control, PI3KC2α
Procedure: as §1

PI3Kb (p110β/p85α) = PI3Kb (p110β/p85α) (Homo sapiens (Human), UniProt P42338); test: Lipid kinase selectivity panel (Reaction Biology); assay type: biochemical; details: 1 μM compound, single dose duplicates, 10 μM ATP; read-out: Percent inhibition relative to DMSO control, PI3Kb (p110β/p85α)
Procedure: as §1

PI3Kd (p110δ/p85α) = PI3Kd (p110δ/p85α) (Homo sapiens (Human), UniProt O00329); test: Lipid kinase selectivity panel (Reaction Biology); assay type: biochemical; details: 1 μM compound, single dose duplicates, 10 μM ATP; read-out: Percent inhibition relative to DMSO control, PI3Kd (p110δ/p85α)
Procedure: as §1

PI3Kg (p110γ) = PI3Kg (p110γ) (Homo sapiens (Human), UniProt P48736); test: Lipid kinase selectivity panel (Reaction Biology); assay type: biochemical; details: 1 μM compound, single dose duplicates, 10 μM ATP; read-out: Percent inhibition relative to DMSO control, PI3Kg (p110γ)
Chain of PI3Kg (p110γ) (P48736 whole entry, species assumed): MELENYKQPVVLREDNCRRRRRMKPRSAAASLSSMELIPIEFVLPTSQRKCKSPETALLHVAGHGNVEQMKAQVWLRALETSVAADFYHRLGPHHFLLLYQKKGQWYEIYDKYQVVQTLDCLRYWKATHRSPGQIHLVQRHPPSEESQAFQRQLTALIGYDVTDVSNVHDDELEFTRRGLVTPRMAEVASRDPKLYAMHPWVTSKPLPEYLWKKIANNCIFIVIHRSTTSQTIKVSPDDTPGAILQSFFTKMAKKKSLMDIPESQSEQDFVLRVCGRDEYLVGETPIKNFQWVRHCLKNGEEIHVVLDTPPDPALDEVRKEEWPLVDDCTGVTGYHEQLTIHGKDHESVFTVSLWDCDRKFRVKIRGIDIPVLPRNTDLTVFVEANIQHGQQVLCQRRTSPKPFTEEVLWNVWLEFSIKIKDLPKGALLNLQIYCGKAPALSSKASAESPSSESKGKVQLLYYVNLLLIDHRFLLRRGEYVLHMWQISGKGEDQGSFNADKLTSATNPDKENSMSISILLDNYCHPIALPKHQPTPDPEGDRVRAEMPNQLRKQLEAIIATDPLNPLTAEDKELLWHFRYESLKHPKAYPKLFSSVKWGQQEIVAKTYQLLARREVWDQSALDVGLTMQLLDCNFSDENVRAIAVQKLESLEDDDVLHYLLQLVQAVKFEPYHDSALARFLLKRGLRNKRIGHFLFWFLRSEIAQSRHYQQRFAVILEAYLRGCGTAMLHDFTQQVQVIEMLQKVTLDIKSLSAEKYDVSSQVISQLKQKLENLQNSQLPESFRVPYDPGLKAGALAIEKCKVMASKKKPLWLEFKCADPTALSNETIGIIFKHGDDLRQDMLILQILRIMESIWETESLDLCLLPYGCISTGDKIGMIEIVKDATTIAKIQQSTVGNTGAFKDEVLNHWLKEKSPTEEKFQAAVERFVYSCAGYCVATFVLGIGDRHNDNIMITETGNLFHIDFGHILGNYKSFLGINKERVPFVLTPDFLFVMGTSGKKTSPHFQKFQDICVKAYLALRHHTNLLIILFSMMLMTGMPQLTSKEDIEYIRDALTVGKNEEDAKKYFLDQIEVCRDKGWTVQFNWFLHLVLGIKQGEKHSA
Procedure: as §1

PI3Kα (p110α/p85α) = PI3Kα (p110α/p85α) (Homo sapiens (Human), UniProt P42336); test: Lipid kinase selectivity panel (Reaction Biology); assay type: biochemical; details: 1 μM compound, single dose duplicates, 10 μM ATP; read-out: Percent inhibition relative to DMSO control, PI3Kα (p110α/p85α)
Chain of PI3Kα (p110α/p85α) (P42336 whole entry, species assumed): as the sequence (P42336 whole entry E542K) above, with K542E counted along it
Chain of PI3Kα (p110α/p85α) (P27986 whole entry partner, species assumed): as the sequence (P27986 whole entry partner) above
Procedure: as §1

Chain of VPS34 (Q8NEB9 other isoform, or with tags, fused parts or gaps): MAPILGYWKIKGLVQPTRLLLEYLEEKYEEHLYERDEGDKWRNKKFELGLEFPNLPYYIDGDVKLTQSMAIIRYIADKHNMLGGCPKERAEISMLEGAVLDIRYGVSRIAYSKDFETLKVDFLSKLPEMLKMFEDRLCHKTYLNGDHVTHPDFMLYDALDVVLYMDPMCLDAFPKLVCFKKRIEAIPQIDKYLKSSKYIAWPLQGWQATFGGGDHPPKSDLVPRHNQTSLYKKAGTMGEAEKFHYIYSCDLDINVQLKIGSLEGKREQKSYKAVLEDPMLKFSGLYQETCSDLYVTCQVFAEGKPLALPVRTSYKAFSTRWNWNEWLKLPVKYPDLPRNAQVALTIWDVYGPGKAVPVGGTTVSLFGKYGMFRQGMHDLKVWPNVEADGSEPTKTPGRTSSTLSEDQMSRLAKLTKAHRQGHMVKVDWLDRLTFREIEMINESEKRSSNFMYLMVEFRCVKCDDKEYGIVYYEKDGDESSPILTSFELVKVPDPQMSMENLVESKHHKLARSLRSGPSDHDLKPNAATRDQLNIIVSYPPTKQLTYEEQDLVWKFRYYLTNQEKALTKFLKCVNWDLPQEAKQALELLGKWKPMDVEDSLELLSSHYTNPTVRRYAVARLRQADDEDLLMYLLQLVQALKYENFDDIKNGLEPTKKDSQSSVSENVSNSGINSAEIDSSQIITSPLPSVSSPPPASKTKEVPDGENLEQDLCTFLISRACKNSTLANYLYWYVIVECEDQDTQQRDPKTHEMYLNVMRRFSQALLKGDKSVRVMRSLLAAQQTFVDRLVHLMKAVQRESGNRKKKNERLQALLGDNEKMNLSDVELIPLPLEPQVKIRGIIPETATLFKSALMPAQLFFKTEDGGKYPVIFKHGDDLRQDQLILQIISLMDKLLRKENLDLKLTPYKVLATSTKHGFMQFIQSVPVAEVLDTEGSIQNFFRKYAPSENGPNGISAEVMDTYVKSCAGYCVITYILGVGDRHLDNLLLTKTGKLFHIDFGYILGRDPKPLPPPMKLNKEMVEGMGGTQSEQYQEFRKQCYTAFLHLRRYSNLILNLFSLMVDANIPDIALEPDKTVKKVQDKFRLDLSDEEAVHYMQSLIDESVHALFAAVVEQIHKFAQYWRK

SMILES | pIC50 (VPS34) | inhibition at 1 µM [1] [%] | inhibition at 1 µM [2] [%] | inhibition at 1 µM [3] [%] | inhibition at 1 µM (PI3K (p110α/p65α)) [%] | inhibition at 1 µM (PI3KC2α) [%] | inhibition at 1 µM (PI3Kb (p110β/p85α)) [%] | inhibition at 1 µM (PI3Kd (p110δ/p85α)) [%] | inhibition at 1 µM (PI3Kg (p110γ)) [%] | inhibition at 1 µM (PI3Kα (p110α/p85α)) [%]
Cc1cnc(NC(=O)CC2CNC2)cc1-c1cc(N2CCCC[C@@H]2C(F)(F)F)[nH]c(=O)c1 [Example 27] | 6.30 to 7.00 | 1 | 1 | -11 | 7 | 0 | -1 | 2 | -8 | 4
Cc1cnc(NC(=O)OC2CC3(CNC3)C2)cc1-c1cc(N2CCCC[C@@H]2C(F)(F)F)[nH]c(=O)c1 [Example 28] | 6.30 to 7.00 | -20 | -5 | -3 | -3 | 3 | 0 | 6 | -10 | -31
COC(=O)Nc1cc(-c2cc(-c3cccnc3C(F)(F)F)[nH]c(=O)c2)c(F)cn1 [Example 5] | 6.30 to 7.00 | 32 | 32 | 35 | 15 | 3 | -6 | 58 | 23 | 17
Cc1nccc(Nc2cc(-c3cc(-c4cccnc4C(F)(F)F)[nH]c(=O)c3)c(C)cn2)n1 [Example 38] | ≥ 7.00 | 16 | 24 | 23 | 19 | 4 | 18 | 52 | 66 | 24
COC(=O)Nc1cc(-c2cc(N3CCCC[C@@H]3C)[nH]c(=O)c2)c(C)cn1 [Example 20] | 6.30 to 7.00 | -5 | -3 | -11 | -11 | 5 | -9 | -4 | -10 | -2
Cc1nccc(Nc2cc(-c3cc(N4CCCC[C@@H]4C(F)(F)F)[nH]c(=O)c3)c(C)cn2)n1 [Example 77] | ≥ 7.00 | 33 | 28 | 22 | 24 | 2 | 11 | 17 | 65 | 30

The remaining lines, values ahead:

pIC50 (VPS34) | inhibition at 1 µM [1] [%] | inhibition at 1 µM [2] [%] | inhibition at 1 µM [3] [%] | inhibition at 1 µM (PI3K (p110α/p65α)) [%] | inhibition at 1 µM (PI3KC2α) [%] | inhibition at 1 µM (PI3Kb (p110β/p85α)) [%] | inhibition at 1 µM (PI3Kd (p110δ/p85α)) [%] | inhibition at 1 µM (PI3Kg (p110γ)) [%] | inhibition at 1 µM (PI3Kα (p110α/p85α)) [%] | SMILES
6.30 to 7.00 | 1 | -1 | -7 | 0 | -5 | -7 | -7 | -4 | 4 | Cc1cnc(NC(=O)CCN(C)C)cc1-c1cc(N2CCCC[C@@H]2C(F)(F)F)[nH]c(=O)c1 [Example 25]
6.30 to 7.00 | 14 | 12 | 8 | 15 | -3 | 14 | 10 | 30 | 20 | COC(=O)Nc1cc(-c2cc(-c3cccnc3C(F)(F)F)[nH]c(=O)c2)c(C)cn1 [Example 78]
6.30 to 7.00 | 0 | 3 | -3 | -23 | 0 | -12 | 1 | -16 | -3 | CNC(=O)Nc1cc(-c2cc(N3CCCC[C@@H]3C(F)(F)F)[nH]c(=O)c2)c(C)cn1 [Example 10]
≥ 7.00 | 4 | 15 | 10 | 5 | -1 | 13 | 9 | 12 | 22 | COC(=O)Nc1cc(-c2cc(N3CCCC[C@@H]3C(F)(F)F)[nH]c(=O)c2)c(C)cn1 [Example 1, methyl (R)-(5-methyl-2′-oxo-6′-(2-(trifluoromethyl)piperidin-1-yl)-1′,2′-dihydro-[4,4′-bipyridin]-2-yl)carbamate]
6.30 to 7.00 | -2 | -1 | -8 | -4 | 4 | -10 | -5 | -5 | -2 | Cc1cnc(NC(=O)CCN2CCCC2)cc1-c1cc(N2CCCC[C@@H]2C(F)(F)F)[nH]c(=O)c1 [Example 26]
